ChEMBL document CHEMBL4011620, “Design and Discovery of N-(2-Methyl-5'-morpholino-6'-((tetrahydro-2H-pyran-4-yl)oxy)-[3,3'-bipyridin]-5-yl)-3-(trifluoromethyl)benzamide (RAF709): A Potent, Selective, and Efficacious RAF Inhibitor Targeting RAS Mutant Cancers” (J Med Chem, 2017)
Activity calls are given as the source filed them. No cut-off for these calls is given here.

Legend:
[1] = molecular target: Serine/threonine-protein kinase B-raf (Homo sapiens, UniProt P15056); assay: Binding affinity to human BRAF (429 to 741 residues) expressed in mammalian expression system at 1 uM by kinome scan assay relative to control
[2] = AUC (infinity) in mouse at 3 mg/kg, po; type: ADME, organism-based; set-up: dose 3 mg/kg, route oral, time infinity; details: in vivo
[3] = Clearance in rat at 3 mg/kg, iv or 10 mg/kg, po; type: ADME, organism-based; details: in vivo
[4] = Volume of distribution at steady state in mouse at 1 mg/kg, iv or 3 mg/kg, po; type: ADME, organism-based; details: in vivo, read-out: Vdss
[5] = Volume of distribution at steady state in dog at 0.3 mg/kg, iv or 1 mg/kg, po; type: ADME, organism-based, Canis lupus familiaris; details: in vivo, read-out: Vdss
[6] = Oral bioavailability in mouse at 3 mg/kg; type: ADME, organism-based; details: in vivo
[7] = Oral bioavailability in rat at 10 mg/kg; type: ADME, organism-based; details: in vivo
[8] = Metabolic stability in rat plasma after 3 hrs; type: ADME, cell-free; details: read-out: Stability
[9] = Metabolic stability in mouse plasma after 3 hrs; type: ADME, cell-free; details: read-out: Stability
[10] = Metabolic stability in human plasma after 3 hrs; type: ADME, cell-free; details: read-out: Stability
[11] = Protein binding in mouse plasma; type: ADME, cell-free; details: read-out: PPB (converted)
[12] = Protein binding in human plasma; type: ADME, cell-free; details: read-out: PPB (converted)
Plasma = assay: Plasma concentration in po dosed mouse xenografted with human Calu6 cells administered as single dose measured after 1 to 24 hrs post dose by LC-MS analysis; type: ADME, organism-based; details: in vivo
Mus musculus [13] = assay: In vivo inhibition of ERK phosphorylation at Thr202/Tyr204 and Thr185/Tyr187 in mouse xenografted with human Calu6 cells at 10 mg/kg, po administered as single dose measured at 24 hrs post dose; type: functional, organism-based
Calu-6 = assay: Antitumor activity against human Calu6 cells xenografted in nude mouse assessed as effect on tumor volume at 30 mg/kg/day, po administered for 15 days starting on day 12 post tumor implantation measured on day 27 relative to control; type: functional
Mus musculus [14] = assay: Toxicity in nude mouse xenografted with human Calu6 cells assessed as body weight loss at 10 to 200 mg/kg/day, po administered for 15 days starting on day 12 post tumor implantation measured twice per week of compound dosing; type: organism-based; details: in vivo, 360 h
Mus musculus [15] = assay: Toxicity in nude mouse xenografted with human Calu6 cells assessed as mortality at 10 to 200 mg/kg/day, po administered for 15 days starting on day 12 post tumor implantation; type: organism-based; details: in vivo, 360 h
[16] = molecular target: RAF proto-oncogene serine/threonine-protein kinase (Homo sapiens, UniProt P04049); assay: Activation of CRAF in human Calu6 cells assessed as increase in MEK phosphorylation after 2 hrs by FRET assay; type: cell-based
Chain of RAF proto-oncogene serine/threonine-protein kinase (P04049 whole entry): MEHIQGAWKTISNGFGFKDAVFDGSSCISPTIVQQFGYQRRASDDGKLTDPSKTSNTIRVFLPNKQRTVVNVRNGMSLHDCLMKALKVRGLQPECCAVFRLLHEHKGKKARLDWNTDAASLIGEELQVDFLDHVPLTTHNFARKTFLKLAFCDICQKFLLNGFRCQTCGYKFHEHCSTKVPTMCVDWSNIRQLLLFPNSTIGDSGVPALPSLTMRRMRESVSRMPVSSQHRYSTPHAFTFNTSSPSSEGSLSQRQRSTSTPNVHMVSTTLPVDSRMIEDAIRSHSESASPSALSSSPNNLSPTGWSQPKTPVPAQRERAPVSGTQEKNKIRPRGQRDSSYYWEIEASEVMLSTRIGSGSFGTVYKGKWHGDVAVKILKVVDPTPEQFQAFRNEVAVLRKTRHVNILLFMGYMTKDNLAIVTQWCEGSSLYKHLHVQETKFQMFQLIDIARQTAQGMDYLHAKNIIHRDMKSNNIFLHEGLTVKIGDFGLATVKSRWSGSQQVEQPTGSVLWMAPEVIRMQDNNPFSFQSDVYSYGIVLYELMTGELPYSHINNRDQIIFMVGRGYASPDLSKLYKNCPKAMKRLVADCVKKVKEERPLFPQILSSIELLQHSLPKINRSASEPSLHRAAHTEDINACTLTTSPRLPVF

Chain of Serine/threonine-protein kinase B-raf (P15056 whole entry, the tested form may be a part): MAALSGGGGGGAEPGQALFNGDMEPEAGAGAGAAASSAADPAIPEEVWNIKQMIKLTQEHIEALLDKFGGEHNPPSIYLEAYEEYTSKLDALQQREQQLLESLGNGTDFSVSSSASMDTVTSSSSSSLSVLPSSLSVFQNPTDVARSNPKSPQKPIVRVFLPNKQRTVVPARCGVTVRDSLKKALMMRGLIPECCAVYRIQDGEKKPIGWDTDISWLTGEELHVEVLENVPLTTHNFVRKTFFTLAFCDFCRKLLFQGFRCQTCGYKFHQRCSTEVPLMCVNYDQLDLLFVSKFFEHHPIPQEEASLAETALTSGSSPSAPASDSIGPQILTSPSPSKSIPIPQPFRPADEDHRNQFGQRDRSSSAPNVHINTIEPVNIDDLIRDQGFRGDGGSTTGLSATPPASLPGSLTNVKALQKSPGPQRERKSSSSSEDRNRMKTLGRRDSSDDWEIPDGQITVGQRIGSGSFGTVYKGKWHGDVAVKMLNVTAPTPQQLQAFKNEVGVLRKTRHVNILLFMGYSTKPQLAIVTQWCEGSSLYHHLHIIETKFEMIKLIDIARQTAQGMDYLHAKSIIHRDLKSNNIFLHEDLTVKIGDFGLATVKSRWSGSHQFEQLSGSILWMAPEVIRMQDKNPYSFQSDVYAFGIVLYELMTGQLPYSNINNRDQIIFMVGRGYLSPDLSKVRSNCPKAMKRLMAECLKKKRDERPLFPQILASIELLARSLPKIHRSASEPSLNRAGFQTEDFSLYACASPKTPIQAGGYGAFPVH

Work on `Cc1ncc(NC(=O)c2cccc(C(F)(F)F)c2)cc1-c1cnc(OC2CCOCC2)c(N2CCOCC2)c1` yielded an Activity [1] greater than 99%, an AUC(0-inf) [2] of 1.7 µM·h and a clearance [3] of 50 mL/min/kg. For the same molecule, the Vd [4] was 1.2 L/kg, the Vd [5] was 3.1 L/kg and the bioavailability [6] was 68%. For the same molecule, the bioavailability [7] was 24%, the remaining at 3 h [8] was 85% and the remaining at 3 h [9] was 82%. For the same molecule, the remaining at 3 h [10] was 101%, the fraction unbound [11] was 0.02 and the fraction unbound [12] was 0.02. For the same molecule, the Drug uptake (Plasma) was “Dose-dependent effect”, the inhibition (Mus musculus [13]) was “inactive” and the T/C (Calu-6) was 46%. For the same molecule, the Activity (Mus musculus [14]) was “Non-Toxic”, the Activity (Mus musculus [15]) was “Non-Toxic” and the Activity [16] was “Not Active”.
